The structures appear in SMILES notation. Several values for one entry are separate records, joined by “and”; a condition that tells them apart may be missing. Equal entries are not always repeated.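 96-well plates; 48 h exposure; 5 concentrations. Endpoints by linear interpolation between flanking doses. Not reached: highest tested concentration assigned. GI50 is the concentration that inhibits growth by half. Definition used: TGI = concentration required for complete inhibition of growth.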

Test systems include MALME-3M melanoma; NCI-H522 lung; SK-MEL-2 melanoma; UO-31 renal; SF-268 CNS; UACC-257 melanoma; SF-295 CNS; RXF 393 renal; HS 578T breast; NCI-H23 lung.
Common to all, as to assay: NCI-60 cell line screen, 48 h

For the molecule `CCN(CC)S(=O)(=O)c1ccc(OC)c(Nc2ncc(-c3ccccc3)o2)c1`, the GI50 was more than 25 µM in the assay on MALME-3M melanoma; more than 16.9 µM in the assay on NCI-H522 lung; more than 22.7 µM in the assay with SK-MEL-2 melanoma; more than 12.9 µM with UO-31 renal; more than 22.3 µM with SF-268 CNS; more than 25 µM in the assay on UACC-257 melanoma. The GI50 is more than 16.5 µM with SF-295 CNS, more than 10.6 µM with RXF 393 renal, more than 14.4 µM in the assay with HS 578T breast and more than 22.7 µM in the assay with NCI-H23 lung. Besides, the TGI with MALME-3M melanoma, with NCI-H522 lung, in the assay on SK-MEL-2 melanoma, with UO-31 renal, in the assay on SF-268 CNS and in the assay on UACC-257 melanoma was more than 25 µM throughout. For the same molecule, the TGI in the assay with SF-295 CNS, with RXF 393 renal, in the assay on HS 578T breast and in the assay on NCI-H23 lung was more than 25 µM throughout.
Regarding `CC(C)(C)C[C@H]1NC(C(=O)NCC[C@H](O)CO)[C@H](c2cccc(Cl)c2)[C@@]12C(=O)Nc1cc(Cl)c(F)cc12` (stereo not given in full), the GI50 in the assay on MALME-3M melanoma was 0.866 µM; with NCI-H522 lung, 14.3 µM; in the assay with SK-MEL-2 melanoma it was 14.4 µM; in the assay with UO-31 renal it was 5.13 µM; in the assay with SF-268 CNS it was 13.7 µM; with UACC-257 melanoma it was 1.75 µM. Moreover, the GI50 was 13.4 µM in the assay on SF-295 CNS, 13.7 µM with RXF 393 renal, 16 µM in the assay on HS 578T breast and 18.7 µM in the assay on NCI-H23 lung. The TGI in the assay with MALME-3M melanoma is 11.8 µM; in the assay on NCI-H522 lung, 30 µM; with SK-MEL-2 melanoma, 28.6 µM; with UO-31 renal, 19.2 µM; in the assay on SF-268 CNS it was 30.2 µM; with UACC-257 melanoma, 15.9 µM. The TGI in the assay with SF-295 CNS worked out at 28.1 µM; in the assay on RXF 393 renal it was 27.1 µM; with HS 578T breast it was 60.4 µM; with NCI-H23 lung it was 41.6 µM.
Turning to `O=C1OC(=O)C(c2c[nH]c3ccccc23)=C1c1c[nH]c2ccccc12`, the GI50 with MALME-3M melanoma is more than 25 µM; in the assay with NCI-H522 lung, more than 25 µM; in the assay with SK-MEL-2 melanoma, more than 25 µM; with UO-31 renal, 8.73 µM; in the assay with SF-268 CNS, more than 25 µM; in the assay with UACC-257 melanoma, more than 25 µM. For the same molecule, the GI50 in the assay with SF-295 CNS, with RXF 393 renal, in the assay with HS 578T breast and with NCI-H23 lung was more than 25 µM each time. In addition, the TGI with MALME-3M melanoma, in the assay on NCI-H522 lung, in the assay on SK-MEL-2 melanoma, with UO-31 renal, in the assay on SF-268 CNS and in the assay with UACC-257 melanoma was more than 25 µM in each case. Besides, the TGI in the assay on SF-295 CNS, in the assay with RXF 393 renal, with HS 578T breast and in the assay with NCI-H23 lung was more than 25 µM throughout.
Take `Cc1ccc2c(ccc3c[n+]4c5ccccc5ccc4n32)c1`: the GI50 with MALME-3M melanoma is 0.316 µM; in the assay with NCI-H522 lung, 1.09 µM; with SK-MEL-2 melanoma it was 1.64 µM; in the assay with UO-31 renal, 5.42 µM; in the assay on SF-268 CNS, 0.39 µM; with UACC-257 melanoma, 1.43 µM. In addition, the GI50 in the assay with SF-295 CNS is 1.56 µM; in the assay with RXF 393 renal, 2.52 µM; in the assay on HS 578T breast, 0.959 µM; in the assay on NCI-H23 lung, 0.606 µM. For the same molecule, the TGI was determined as 1.59 µM in the assay with MALME-3M melanoma; 3.8 µM with NCI-H522 lung; 3.9 µM in the assay on SK-MEL-2 melanoma; 54 µM in the assay on UO-31 renal; 2.13 µM in the assay on SF-268 CNS; 3.82 µM with UACC-257 melanoma. The TGI turned out to be 6.91 µM in the assay with SF-295 CNS, 8.81 µM in the assay on RXF 393 renal, 4.71 µM in the assay on HS 578T breast and 3.51 µM in the assay with NCI-H23 lung.
On to `CC(C)NC[C@@H](C(=O)N1CCN(c2ncnc3c2[C@H](C)C[C@H]3O)CC1)c1ccc(Cl)cc1`, for which the GI50 was > 10 µM and 4.54 µM with MALME-3M melanoma; more than 100 µM in the assay with NCI-H522 lung; > 10 µM and 33 µM with SK-MEL-2 melanoma; 6.57 µM and 16.2 µM in the assay with UO-31 renal; > 10 µM and 28.7 µM in the assay with SF-268 CNS; > 10 µM and 10.8 µM in the assay on UACC-257 melanoma. Moreover, the GI50 was 0.68 µM and 0.47 µM in the assay with SF-295 CNS; 0.293 µM and 0.341 µM with RXF 393 renal; 1 µM and 0.657 µM with HS 578T breast; > 10 µM and 31.2 µM in the assay on NCI-H23 lung. For the same molecule, the TGI in the assay on MALME-3M melanoma is more than 76.7 µM; in the assay on NCI-H522 lung, more than 100 µM; with SK-MEL-2 melanoma it was more than 80.2 µM; with UO-31 renal, more than 87.3 µM; in the assay with SF-268 CNS, more than 100 µM; in the assay with UACC-257 melanoma, > 10 µM and 49.8 µM. In addition, the TGI is more than 75.1 µM in the assay on SF-295 CNS; 4.85 µM and 5.55 µM in the assay on RXF 393 renal; > 10 µM and 18.4 µM with HS 578T breast; more than 100 µM in the assay on NCI-H23 lung.
Take `Cc1c(C(=O)/C=C/c2csc3ccccc23)[n+](=O)c2ccccc2n1[O-]`: the GI50 is 2.29 µM in the assay with MALME-3M melanoma; 1.78 µM in the assay with NCI-H522 lung; 2.06 µM in the assay on SK-MEL-2 melanoma; 1.24 µM in the assay with UO-31 renal; 1.44 µM in the assay with SF-268 CNS; 1.81 µM in the assay with UACC-257 melanoma. Further, the GI50 with SF-295 CNS is 1.94 µM; in the assay with RXF 393 renal, 1.91 µM; with HS 578T breast, 1.56 µM; with NCI-H23 lung, 1.61 µM. The TGI with MALME-3M melanoma was found to be 8.06 µM; in the assay on NCI-H522 lung, 3.88 µM; in the assay with SK-MEL-2 melanoma, 4.23 µM; in the assay on UO-31 renal, 2.56 µM; in the assay on SF-268 CNS it was 2.78 µM; with UACC-257 melanoma, 3.73 µM. Moreover, the TGI in the assay with SF-295 CNS was 4.83 µM; in the assay with RXF 393 renal, 3.58 µM; in the assay on HS 578T breast it was 5.22 µM; with NCI-H23 lung, 3.49 µM.
As to `C[C@H](Nc1ncnc2nc[nH]c12)c1cc2cccc(Cl)c2c(=O)n1-c1ccccc1`, the GI50 in the assay with MALME-3M melanoma was 3.51 µM; with NCI-H522 lung, 6.93 µM; with SK-MEL-2 melanoma, 19.2 µM; in the assay on UO-31 renal, 1.67 µM; with SF-268 CNS, 22.6 µM; with UACC-257 melanoma, 8.57 µM. Further, the GI50 in the assay on SF-295 CNS was 1.54 µM; in the assay with RXF 393 renal it was 0.273 µM; in the assay with HS 578T breast, 0.631 µM; with NCI-H23 lung, 82.1 µM. The TGI with MALME-3M melanoma is more than 79.5 µM; with NCI-H522 lung it was more than 100 µM; in the assay on SK-MEL-2 melanoma, 72.6 µM; in the assay with UO-31 renal, more than 75.3 µM; with SF-268 CNS, more than 100 µM; in the assay on UACC-257 melanoma it was more than 100 µM. In addition, the TGI in the assay with SF-295 CNS is more than 100 µM; in the assay on RXF 393 renal it was 9.41 µM; with HS 578T breast it was 14.5 µM; in the assay with NCI-H23 lung, more than 100 µM.

For the origin of these results see PubChem BioAssay (NCI).
